Laboratory results from patent publication US20080228408A1, “Method for Determining the State of an Ensemble of Cells and System for the Implementation of the Method” (priority 2005, published 2008).

Tested on: neuronal cells
Assay: Toxicogenomic DNA chip test: gene expression level (RES) in cells exposed to the compound compared to unexposed cells
Assay type: cell-based
Settings: Neuron
Source text: One wishes to carry out the evaluation of the toxicity of a collection of (15) pesticides using a toxicogenomic analysis of the impact of these pesticides on neuronal cells, according to 4 modes of exposure of the cells to the compounds:
DNA chips built specifically to test the expression level of the 51 genes in cells under study, each chip being configured only for one gene in our case, each chip allowing to carry out for each gene a redundant number of measurements (16) in order to stabilize the levels of expression by analysing the results on average. The spots on the chips are numbered sp1 to sp16.
An automated device D5 allowing, on signal of execution of the C2 test, to take a E1 sample of the cell culture C (non exposed) and a E2 sample of the cell culture C exposed to the compound by the device described previously under the conditions specified with the configuration, then to use the D1 device to select a DNA chip corresponding to the gene specified at the time of the configuration, and to put the samples E1 and E2 thus obtained in the presence of the aforementioned DNA chip according to the methods described in the D1 device,
The result of a test, RES, transmitted by the Resource Unit to the PC, is a raw numerical value which indicates the expression level of the gene indicated in the configuration, for the cell exposed to the compound under the conditions of concentration and exposure duration specified in the configuration, compared to the expression level of the same gene in an unexposed cell of identical nature.
The following results are based on 3 evaluations, each using a different strategy, the target cells being neuronal cells, the mode of exposure being Expo11.
The results presented in table 2 show the values obtained in (052) for the evaluation of Paraquat according to the 4 modes Expo11, Expo12, Expo21, Expo22 carried out. The missing data are not relevant (ranging between 0.5 and 2 strictly).

## C[n+]1ccc(-c2cc[n+](C)cc2)cc1 [Paraquat]
C1 (IC50), 24 h (Expo11)
  A2M gene expression level RES (exposed/unexposed cells): 0.43
  AITCH gene expression level RES (exposed/unexposed cells): 0.13
  ALB gene expression level RES (exposed/unexposed cells): 0.57
  APAF1 gene expression level RES (exposed/unexposed cells): 0.47
  AR gene expression level RES (exposed/unexposed cells): 0.39
  ATF6 gene expression level RES (exposed/unexposed cells): 0.48
  ATM gene expression level RES (exposed/unexposed cells): 0.42
  BAX gene expression level RES (exposed/unexposed cells): 0.40
  BCL2 gene expression level RES (exposed/unexposed cells): 0.44
  BZRP gene expression level RES (exposed/unexposed cells): 0.53
  C12ORF8 gene expression level RES (exposed/unexposed cells): 0.57
  CALR gene expression level RES (exposed/unexposed cells): 0.52
  CDC25C gene expression level RES (exposed/unexposed cells): 0.62
  CDK4 gene expression level RES (exposed/unexposed cells): 0.59
  CDKN1A gene expression level RES (exposed/unexposed cells): 0.46
  CREB1 gene expression level RES (exposed/unexposed cells): 0.64
  CTSB gene expression level RES (exposed/unexposed cells): 0.51
  CTSD gene expression level RES (exposed/unexposed cells): 0.39
  EGF gene expression level RES (exposed/unexposed cells): 0.47
  EPHX1 gene expression level RES (exposed/unexposed cells): 0.45
  FOS gene expression level RES (exposed/unexposed cells): 0.43
  GADD45A gene expression level RES (exposed/unexposed cells): 0.54
  GPX1 gene expression level RES (exposed/unexposed cells): 0.49
  GSS gene expression level RES (exposed/unexposed cells): 0.54
  GSTM3 gene expression level RES (exposed/unexposed cells): 0.71
  HOXD1 gene expression level RES (exposed/unexposed cells): 0.44
  HSPA5 gene expression level RES (exposed/unexposed cells): 0.55
  HSPA9B gene expression level RES (exposed/unexposed cells): 0.58
  JUN gene expression level RES (exposed/unexposed cells): 0.61
  MDM2 gene expression level RES (exposed/unexposed cells): 0.37
  NFKB1 gene expression level RES (exposed/unexposed cells): 0.54
  NOS2A gene expression level RES (exposed/unexposed cells): 0.54
  PARA gene expression level RES (exposed/unexposed cells): 0.38
  PGR gene expression level RES (exposed/unexposed cells): 0.42
  RAD50 gene expression level RES (exposed/unexposed cells): 0.63
  RAD51 gene expression level RES (exposed/unexposed cells): 0.49
  SOD1 gene expression level RES (exposed/unexposed cells): 0.76
  TF1 gene expression level RES (exposed/unexposed cells): 0.68
  THBS1 gene expression level RES (exposed/unexposed cells): 0.39
  TP53 gene expression level RES (exposed/unexposed cells): 0.54
  TUBA1 gene expression level RES (exposed/unexposed cells): 0.38
  XBP1 gene expression level RES (exposed/unexposed cells): 0.50
C1 (IC50), 48 h (Expo12)
  A2M gene expression level RES (exposed/unexposed cells): 0.03
  AITCH gene expression level RES (exposed/unexposed cells): 0.03
  ALB gene expression level RES (exposed/unexposed cells): 0.01
  APAF1 gene expression level RES (exposed/unexposed cells): 0.05
  AR gene expression level RES (exposed/unexposed cells): 0.04
  ATF6 gene expression level RES (exposed/unexposed cells): 0.05
  ATM gene expression level RES (exposed/unexposed cells): 0.04
  BAX gene expression level RES (exposed/unexposed cells): 0.05
  BCL2 gene expression level RES (exposed/unexposed cells): 0.04
  BZRP gene expression level RES (exposed/unexposed cells): 0.04
  C12ORF8 gene expression level RES (exposed/unexposed cells): 0.05
  CALR gene expression level RES (exposed/unexposed cells): 0.04
  CDC25C gene expression level RES (exposed/unexposed cells): 0.04
  CDK4 gene expression level RES (exposed/unexposed cells): 0.06
  CDKN1A gene expression level RES (exposed/unexposed cells): 0.02
  CREB1 gene expression level RES (exposed/unexposed cells): 0.03
  CTSB gene expression level RES (exposed/unexposed cells): 0.05
  CTSD gene expression level RES (exposed/unexposed cells): 0.03
  EGF gene expression level RES (exposed/unexposed cells): 0.04
  EPHX1 gene expression level RES (exposed/unexposed cells): 0.07
  FOS gene expression level RES (exposed/unexposed cells): 0.04
  GADD45A gene expression level RES (exposed/unexposed cells): 0.04
  GPX1 gene expression level RES (exposed/unexposed cells): 0.02
  GSS gene expression level RES (exposed/unexposed cells): 0.04
  GSTM3 gene expression level RES (exposed/unexposed cells): 0.06
  HOXD1 gene expression level RES (exposed/unexposed cells): 0.03
  HSPA5 gene expression level RES (exposed/unexposed cells): 0.06
  HSPA9B gene expression level RES (exposed/unexposed cells): 0.05
  JUN gene expression level RES (exposed/unexposed cells): 0.05
  MDM2 gene expression level RES (exposed/unexposed cells): 0.05
  NFKB1 gene expression level RES (exposed/unexposed cells): 0.04
  NOS2A gene expression level RES (exposed/unexposed cells): 0.04
  PARA gene expression level RES (exposed/unexposed cells): 0.04
  PGR gene expression level RES (exposed/unexposed cells): 0.04
  RAD50 gene expression level RES (exposed/unexposed cells): 0.06
  RAD51 gene expression level RES (exposed/unexposed cells): 0.05
  SOD1 gene expression level RES (exposed/unexposed cells): 0.05
  TF1 gene expression level RES (exposed/unexposed cells): 0.05
  THBS1 gene expression level RES (exposed/unexposed cells): 0.05
  TP53 gene expression level RES (exposed/unexposed cells): 0.05
  TUBA1 gene expression level RES (exposed/unexposed cells): 0.04
  XBP1 gene expression level RES (exposed/unexposed cells): 0.05
C2 (IC50/10), 24 h (Expo21)
  A2M gene expression level RES (exposed/unexposed cells): 0.14
  AITCH gene expression level RES (exposed/unexposed cells): 0.08
